The test system of one series is A549 xenografts. Kind of series: A549 xenografts in nude mice, PS V and curcumin alone and combined. Type of series: in vivo, female nude mice. Conditions: for inhibition of tumor growth (in words): duration of the study, to day 36; for average tumor volume: end of the study (day 36), PS V 200 mg/kg/d, curcumin 500 mg/kg/d, control 521±76 mm^3; for reduction in tumor weight: PS V p=0.06, PS V plus curcumin p<0.01. Here is the method: Polymeric nanoparticles of poly(c-caprolactone) (11000)-polyethylene glycol (5000) with entrapped curcumin were prepared according to the nanopercipitation-solvent displacement method. […] Then, the mice were inoculated subcutaneously on both flanks with […] cells (2×10^6 each). The treatment was resumed one day after tumor implantation and continued daily until the end of the study.

Series [1] has as its system pre-clinical models of lung cancer. Particulars: cited from earlier work.
Series [2] in a line: Drug levels in lungs and plasma after inhalation vs. oral gavage. Format: in vivo, mice.
The subject of another series is human cancer cells. Kind of series: Cytotoxicity to human cancer cells compared with metabolites. Format: cell-based.
Series [3] can be described thus: Pharmacokinetic parameters in lung and plasma after inhalational administration (HPLC). The procedure:
After 8 min of inhalation treatment, BALB/c nude mice were euthanized at various time points and drug levels were analyzed by HPLC in plasma and lung tissues.

Where [4] appears, read: plasma, after 8 min of inhalation treatment.
[5] abbreviates: mouse, in vivo, inhaled or intranasal.

A value given as a limit tells only on which side of the number the result lay.

As to `COc1cc(/C=C/C(=O)CC(=O)/C=C/c2ccc(O)c(OC)c2)ccc1O` [curcumin], in the series on A549 xenografts, the “inhibition of tumor growth (in words)” value is on record as “ineffective” and the average tumor volume is recorded as 599±98 mm^3. The “reduction in tumor weight” value in the series with A549 xenografts (vs control) is reported as “not”. Besides, the “efficacy as a single agent” value in series [1] is recorded as less than 30%.
In the case of `CCOP(=O)(OCC)OCCCCOC(=O)CC1=C(C)/C(=C/c2ccc([S+](C)[O-])cc2)c2ccc(F)cc21` (centres unmarked) [PS V, phospho-sulindac], the “PS levels in plasma” value in series [2] (after inhalation and oral administration) is “undetectable”. Also, the “total drug levels (PS V plus its metabolites) in lungs, inhalation compared to oral” value in series [2] (inhalation 6.5 mg/kg vs oral 150 mg/kg) is recorded as “significantly higher”. Also, in the series on A549 xenografts, the “inhibition of tumor growth (in words)” value was “small inhibition of tumor growth” and the average tumor volume is 419±36 mm^3. Moreover, in the series with A549 xenografts (end of the study, vs control), the “reduction in tumor volume” value was 19.6%. Also, the “reduction in tumor weight” value in the series with A549 xenografts (vs control) is recorded as 27%. The “cytotoxicity relative to sulindac, sulindac sulfide XI and sulindac sulfone XII” value in the series with human cancer cells is reported as “more cytotoxic”.
Consider `CC1=C(CC(=O)O)c2cc(F)ccc2/C1=C\c1ccc([S+](C)[O-])cc1` (centres unmarked) [Sulindac, sulindac], for which the Tmax (commonly the time from dosing to the highest level) in series [3] (lung, after 8 min of inhalation treatment) stood at 0 h. In addition, in series [3] (setting [4]), the AUC was 49.5 and the Tmax was found to be 0 h.
In series [3] (setting [5]), `CC1=C(CC(=O)O)c2cc(F)ccc2/C1=C\c1ccc(S(C)(=O)=O)cc1` [Sulindac sulfone XII, sulindac sulfone] showed an AUC of 57.5 and a Cmax of 4.6 nmol/g.
`CSc1ccc(/C=C2/C(C)=C(CC(=O)O)c3cc(F)ccc32)cc1` [Sulindac sulfide XI, sulindac sulfide] registered an AUC in series [3] (setting [5]) of 18.9.

Source of the values: patent US20140088044A1, “PRODUCT COMPRISING A NICOTINE-CONTAINING MATERIAL AND AN ANTI-CANCER AGENT” (priority 2012, published 2014).
